Experimental data: US9944618B2, “Inhibiting neurotransmitter reuptake” (Mayo Foundation for Medical Education and Research, priority 2013, dated 2018)
Read-outs that look alike come from different tables or passages of the source.

What was measured:
[1] = target: human norepinephrine transporter (Homo sapiens (Human), UniProt P23975); test: Human NET (norepinephrine transporter) uptake assay; type: cell-based; conditions: read-out: hNET Ki
Method in brief: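 HEK293F cells transfected with human NET were thawed, plated at about 60,000 cells/well and held at 37 °C for at least 3 h. Compounds came from 10 mM DMSO stocks, with nomifensine as control, in 1×HBSS/0.02 M HEPES. Uptake was followed with a neurotransmitter transporter dye, dosed as % of vendor reconstitution, in triplicate.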

[2] = target: human dopamine transporter (Homo sapiens (Human), UniProt Q01959); test: Human DAT (dopamine transporter) uptake assay; type: cell-based; conditions: read-out: hDAT Ki
Method in brief: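 Uptake inhibition was measured in HEK293F cells transfected with human DAT, plated at ~60,000 cells/well and settled ≥3 h at 37 °C. Compounds came from 10 mM DMSO stocks. Read-out was uptake of a fluorescent neurotransmitter transporter dye in HBSS with 0.02 M HEPES, with dye level given as % of vendor reconstitution; n=3.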

[3] = target: human serotonin transporter (Homo sapiens (Human), UniProt P31645); test: Human SERT (serotonin transporter) uptake assay; type: cell-based; conditions: read-out: hSERT Ki
Method in brief: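 HEK293F cells transfected with human SERT, about 60,000 per well, settled for ≥3 h at 37° C before compound addition. Uptake was followed with a fluorescent transporter dye in HBSS with 0.02 M HEPES. Background came from 10 μM fluoxetine, nomifensine was the control, n=3.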

[4] = target: hERG (Homo sapiens (Human), UniProt Q12809); test: Human ERG (hERG) assay, hERG currents in hERG-expressing CHO cells; type: cell-based; conditions: hERG-expressing CHO cells
Excerpt: The voltage-dependent potassium channel encoded by the human ether-a-go-go-related gene (hERG) is believed to play a key role in repolarisation of the ventricular cardiac action potential. Changes in its activity, caused either by inherited mutations of the gene sequence or pharmacological modification, can lead to prolongation of action potential duration. This can lead to prolongation of the QT interval recorded in man on an electrocardiogram and to a potentially fatal cardiac arrhythmia known as Torsades de Pointes.
hERG currents were recorded from hERG-expressing CHO cells. The biophysical and pharmacological characterization of the hERG currents in these cells was performed.

[5] = target: CYP3A4 (Homo sapiens (Human), UniProt P08684); test: Cytochrome P450 inhibition assay, recombinant CYP3A4 (BFC substrate); type: in vitro ADME; conditions: recombinant enzyme
Procedure: (§1) Recombinant enzymes, 3A4 and 2D6, generated using the ABL yeast expression system were used. […] The assay mixture also included K2HPO4 (pH 7.4; conc. 0.1 M) and NADPH (conc. 1 mM). The incubation time was 30 minutes, and the reference inhibitor was A-naphthoflavone. For CYP2D6, the enzyme amount was 2 pmol per well, and the substrate (7-methoxy-4-(aminomethyl)-coumarin; MAMC) was used at 20 μM. The assay mixture also included K2HPO4 (pH 7.4; conc. 0.1 M) and NADPH (conc. 0.06 mM). The incubation time was 35 minutes, and the reference inhibitor was quinidine.
(§2) Briefly, 0.6 μL of serially diluted compound was added to 75 μL water. 10 μL of diluted compound in water was then added to each assay plate. 20 μL of a K2HPO4, enzyme, and substrate mixture was added. After 10 minutes of room temperature pre-incubation, 10 μL of NADPH was added, and the plates were placed at 37° C. for 30 or 35 minutes depending on the enzyme being tested. After the incubation was complete, 20 μL of 0.1% Tris/ACN was added to the plate. The plate was read on a FluorStar fluorescence plate reader.

[6] = target: CYP2D6 (Homo sapiens (Human), UniProt P10635); test: Cytochrome P450 inhibition assay, recombinant CYP2D6 (MAMC substrate); type: in vitro ADME; conditions: recombinant enzyme
Procedure: as §1, §2

[7] = pKa of basic centres (Table 1); type: physicochemical
[8] = first base, e.g., an aliphatic primary, secondary, or tertiary amine, read-out: pKa (Base 1)
[9] = second base in the same molecule (if present), read-out: pKa (Base 2)

hERG, sequence (Q12809 whole entry): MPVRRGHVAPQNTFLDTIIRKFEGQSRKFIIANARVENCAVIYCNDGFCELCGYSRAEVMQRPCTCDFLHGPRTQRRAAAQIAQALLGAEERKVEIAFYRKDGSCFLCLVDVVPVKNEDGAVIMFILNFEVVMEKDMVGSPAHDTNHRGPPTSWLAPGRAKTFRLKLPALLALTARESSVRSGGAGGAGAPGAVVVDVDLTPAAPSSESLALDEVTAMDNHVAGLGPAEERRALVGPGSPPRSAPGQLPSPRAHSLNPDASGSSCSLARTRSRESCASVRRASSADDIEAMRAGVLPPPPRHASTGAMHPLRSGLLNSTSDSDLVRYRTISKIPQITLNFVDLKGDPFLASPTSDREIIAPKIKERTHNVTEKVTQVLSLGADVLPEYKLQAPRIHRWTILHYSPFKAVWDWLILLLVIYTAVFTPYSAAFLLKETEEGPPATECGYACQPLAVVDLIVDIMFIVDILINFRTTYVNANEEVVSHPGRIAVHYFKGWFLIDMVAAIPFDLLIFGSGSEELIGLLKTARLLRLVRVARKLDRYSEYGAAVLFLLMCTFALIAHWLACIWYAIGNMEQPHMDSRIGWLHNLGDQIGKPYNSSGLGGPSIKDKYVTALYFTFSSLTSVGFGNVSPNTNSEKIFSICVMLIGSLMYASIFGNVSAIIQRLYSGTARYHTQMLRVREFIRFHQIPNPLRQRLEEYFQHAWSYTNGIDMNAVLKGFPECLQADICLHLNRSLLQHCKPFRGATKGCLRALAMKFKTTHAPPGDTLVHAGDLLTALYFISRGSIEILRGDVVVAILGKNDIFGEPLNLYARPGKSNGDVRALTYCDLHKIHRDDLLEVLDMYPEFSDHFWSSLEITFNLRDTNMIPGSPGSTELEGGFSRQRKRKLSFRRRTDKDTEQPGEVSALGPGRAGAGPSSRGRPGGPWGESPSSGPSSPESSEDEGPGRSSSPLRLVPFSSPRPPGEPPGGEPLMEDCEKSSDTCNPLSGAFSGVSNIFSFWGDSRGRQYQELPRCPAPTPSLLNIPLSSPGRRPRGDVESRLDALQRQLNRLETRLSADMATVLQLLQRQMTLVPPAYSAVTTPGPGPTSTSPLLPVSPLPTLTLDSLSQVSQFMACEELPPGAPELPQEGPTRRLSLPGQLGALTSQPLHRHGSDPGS
CYP2D6, sequence (P10635 whole entry): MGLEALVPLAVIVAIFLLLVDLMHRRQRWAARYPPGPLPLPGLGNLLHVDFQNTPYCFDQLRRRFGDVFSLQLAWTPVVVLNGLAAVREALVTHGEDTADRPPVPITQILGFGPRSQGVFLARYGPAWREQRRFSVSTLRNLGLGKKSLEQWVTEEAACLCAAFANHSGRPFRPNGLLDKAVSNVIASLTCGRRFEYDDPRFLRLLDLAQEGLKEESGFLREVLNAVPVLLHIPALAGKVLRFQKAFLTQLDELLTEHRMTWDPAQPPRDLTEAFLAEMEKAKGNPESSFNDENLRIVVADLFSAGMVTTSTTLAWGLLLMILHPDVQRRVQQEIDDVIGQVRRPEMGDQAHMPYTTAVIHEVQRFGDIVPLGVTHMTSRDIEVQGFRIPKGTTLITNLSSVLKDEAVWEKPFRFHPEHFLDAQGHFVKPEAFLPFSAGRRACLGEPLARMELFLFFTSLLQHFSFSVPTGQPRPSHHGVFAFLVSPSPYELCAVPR
human norepinephrine transporter, sequence (P23975 whole entry): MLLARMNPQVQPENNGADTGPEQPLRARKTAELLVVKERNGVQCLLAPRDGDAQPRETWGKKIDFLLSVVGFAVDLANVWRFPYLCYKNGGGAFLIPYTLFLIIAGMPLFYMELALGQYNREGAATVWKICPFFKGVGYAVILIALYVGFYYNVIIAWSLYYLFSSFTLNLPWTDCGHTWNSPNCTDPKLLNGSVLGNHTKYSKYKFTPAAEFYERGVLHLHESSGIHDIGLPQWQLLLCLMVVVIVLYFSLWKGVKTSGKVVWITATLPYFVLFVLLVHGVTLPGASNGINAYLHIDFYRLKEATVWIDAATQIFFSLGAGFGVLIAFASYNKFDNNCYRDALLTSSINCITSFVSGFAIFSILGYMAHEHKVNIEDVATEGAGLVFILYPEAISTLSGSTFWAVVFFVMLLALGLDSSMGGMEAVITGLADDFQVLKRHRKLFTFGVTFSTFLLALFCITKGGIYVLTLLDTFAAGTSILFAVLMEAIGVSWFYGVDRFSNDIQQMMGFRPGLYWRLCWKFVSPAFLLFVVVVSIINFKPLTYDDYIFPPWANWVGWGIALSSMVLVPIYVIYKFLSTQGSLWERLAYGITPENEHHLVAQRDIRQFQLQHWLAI
CYP3A4, sequence (P08684 whole entry): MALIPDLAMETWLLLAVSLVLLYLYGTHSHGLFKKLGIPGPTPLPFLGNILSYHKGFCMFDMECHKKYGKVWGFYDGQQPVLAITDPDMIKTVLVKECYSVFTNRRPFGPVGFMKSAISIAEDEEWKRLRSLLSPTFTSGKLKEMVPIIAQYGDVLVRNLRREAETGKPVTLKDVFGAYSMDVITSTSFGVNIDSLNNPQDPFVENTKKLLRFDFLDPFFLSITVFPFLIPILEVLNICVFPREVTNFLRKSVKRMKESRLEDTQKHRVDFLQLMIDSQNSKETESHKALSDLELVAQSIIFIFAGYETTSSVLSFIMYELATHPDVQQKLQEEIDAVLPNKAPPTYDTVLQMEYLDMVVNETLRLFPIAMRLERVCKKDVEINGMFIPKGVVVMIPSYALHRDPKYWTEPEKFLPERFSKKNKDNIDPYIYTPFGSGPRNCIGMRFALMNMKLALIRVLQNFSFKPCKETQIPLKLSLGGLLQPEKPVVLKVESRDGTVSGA
human serotonin transporter, sequence (P31645 whole entry): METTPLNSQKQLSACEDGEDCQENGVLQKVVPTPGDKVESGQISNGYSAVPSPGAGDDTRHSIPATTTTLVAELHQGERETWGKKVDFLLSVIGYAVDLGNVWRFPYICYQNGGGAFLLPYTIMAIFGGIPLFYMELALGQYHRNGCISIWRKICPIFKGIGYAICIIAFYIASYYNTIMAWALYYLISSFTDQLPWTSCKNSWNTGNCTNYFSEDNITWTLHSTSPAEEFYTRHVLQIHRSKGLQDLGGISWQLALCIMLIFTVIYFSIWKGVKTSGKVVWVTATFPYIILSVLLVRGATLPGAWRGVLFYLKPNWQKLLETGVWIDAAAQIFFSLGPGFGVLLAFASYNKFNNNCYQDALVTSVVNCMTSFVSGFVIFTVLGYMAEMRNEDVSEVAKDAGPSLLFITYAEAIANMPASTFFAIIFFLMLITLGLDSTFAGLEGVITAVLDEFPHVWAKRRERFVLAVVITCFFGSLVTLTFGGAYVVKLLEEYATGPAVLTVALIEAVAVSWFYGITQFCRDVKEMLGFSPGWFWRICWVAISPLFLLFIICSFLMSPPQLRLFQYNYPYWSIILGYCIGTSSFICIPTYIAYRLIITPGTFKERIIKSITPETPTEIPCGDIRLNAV
human dopamine transporter, sequence (Q01959 whole entry): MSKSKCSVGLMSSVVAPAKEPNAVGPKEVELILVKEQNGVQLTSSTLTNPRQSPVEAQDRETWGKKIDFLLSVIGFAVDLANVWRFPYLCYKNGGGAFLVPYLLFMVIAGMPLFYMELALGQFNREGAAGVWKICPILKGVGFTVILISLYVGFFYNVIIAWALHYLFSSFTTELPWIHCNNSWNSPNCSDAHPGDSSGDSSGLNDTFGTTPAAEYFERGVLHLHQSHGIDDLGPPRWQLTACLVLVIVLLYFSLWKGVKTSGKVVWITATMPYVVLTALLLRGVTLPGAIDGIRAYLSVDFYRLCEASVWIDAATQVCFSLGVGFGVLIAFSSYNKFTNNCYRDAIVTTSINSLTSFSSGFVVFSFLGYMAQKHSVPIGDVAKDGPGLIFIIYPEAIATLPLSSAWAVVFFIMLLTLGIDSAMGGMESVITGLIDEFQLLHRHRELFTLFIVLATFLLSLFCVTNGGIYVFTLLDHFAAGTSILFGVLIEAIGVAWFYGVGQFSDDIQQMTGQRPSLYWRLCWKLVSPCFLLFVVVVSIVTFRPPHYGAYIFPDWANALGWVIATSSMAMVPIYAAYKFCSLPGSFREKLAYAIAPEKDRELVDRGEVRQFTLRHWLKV

Row | Structure (SMILES) | Ki [1] [nM] | Ki [2] [nM] | Ki [3] [nM] | IC50 [5] [nM] | IC50 [6] [nM] | pKa [7, 8] | pKa (Base 1) ([7]; first base, e.g., an aliphatic primary, secondary, or tertiary amine) | IC50 [4] [nM] | pKa [7, 9]
1 | CNC[C@H](c1ccc(Br)c(Cl)c1)[C@H](O)c1ccccc1 (racemic) [Compound 43] | 3.3 | 7.3 | 19.7 | 8100 | 110 | 9.4 | – | 7100 | –
2 | CNCC(c1ccc(Cl)c(Cl)c1)[C@H](O)c1ccccc1 (mixture of isomers) [Compound 53] | 4.5 | 9.8 | 17.3 | ≥ 20000 | 410 | 9.4 | – | 9800 | –
3 | CNC[C@H](c1ccc2ccccc2c1)[C@H](O)c1cccnc1 (racemic) [Compound 62] | 6.5 | 45 | 9.9 | ≥ 20000 | 1000 | 9.6 | – | 25000 | 5.1
4 | CN(C)C[C@H](c1ccc2ccccc2c1)[C@H](O)c1cccs1 (racemic) [Compound 135] | 11.7 | 58.1 | 21.4 | ≥ 20000 | 910 | 8.9 | – | 3100 | –
5 | CNC[C@H](c1ccc(Cl)c(Cl)c1)[C@H](O)c1cccc(I)c1 (single isomer, unassigned) [Compound 151] | 20.4 | 31.4 | 45.2 | 2100 | 130 | 9.4 | – | 3800 | –
6 | CNCC(Cc1ccccc1CO)c1ccc2ccccc2c1 (stereo not shown) [Compound 2] | 1 | 5.5 | 2.5 | – | 170 | – | 10 | 15000 | –
7 | CNC[C@@H](Cc1ccccc1)c1ccc2ccccc2c1 [Compound 5] | 1.4 | 10.1 | 2.8 | 18000 | 240 | 10.1 | – | 6500 | –
8 | CNC[C@H](c1ccc2ccccc2c1)[C@H](F)c1ccccc1 [Compound 9] | 1.5 | 42.3 | 5.7 | 8600 | 210 | 9.4 | – | 9500 | –
9 | CNC[C@H](c1ccc(Cl)c(Cl)c1)[C@H](O)c1ccccc1 [Compound 10] | 1.5 | 7.3 | 11.7 | 20000 | 120 | 9.4 | – | 9100 | –
10 | CNC[C@H](c1ccc2ccccc2c1)[C@@H](F)c1ccccc1 [Compound 11] | 1.6 | 11.1 | 4.2 | 6700 | 96 | 9.4 | – | 11000 | –
11 | CNCC(c1ccc(Br)c(Cl)c1)[C@H](O)c1ccccc1 (stereo partly shown) [Compound 16] | 1.8 | 6.6 | 6.3 | 19000 | 230 | 9.4 | – | 5000 | –
12 | c1ccc([C@@H]2OCCNC[C@H]2c2ccc3ccccc3c2)cc1 [Compound 64] | 7.2 | 9.4 | 11.3 | – | 5100 | 9.3 | – | 20000 | –
13 | CNCC(c1ccc(F)c(Cl)c1)[C@H](O)c1ccccc1 (stereo partly shown) [Compound 73] | – | – | – | 20000 | 790 | 9.3 | – | 31000 | –
14 | CN1CCO[C@H](c2ccccc2)[C@@H](c2ccc3ccccc3c2)C1 [Compound 77] | 12.4 | 44.7 | 3 | – | 5700 | 8.2 | – | 4500 | –

More lines, main results first:

Row | Ki [1] [nM] | Ki [2] [nM] | Ki [3] [nM] | IC50 [5] [nM] | IC50 [6] [nM] | pKa [7, 8] | pKa (Base 1) ([7]; first base, e.g., an aliphatic primary, secondary, or tertiary amine) | Structure (SMILES) | IC50 [4] [nM] | pKa [7, 9]
15 | 3.2 | 114 | 3.3 | 19000 | 960 | 10 | – | CNCC(Cc1cccs1)c1ccc2ccccc2c1 (racemic) [Compound 40] | 4100 | –
16 | 4.7 | 40.4 | 6.7 | 11000 | 240 | 9.7 | – | CNC[C@H](c1ccc2ccccc2c1)[C@H](O)c1ccccc1C (racemic) [Compound 56] | 22000 | –
17 | 10.1 | 100 | 27.6 | ≥ 20000 | 760 | 9.6 | – | CNC[C@@H](c1ccc2ccccc2c1)[C@H](O)c1ccccn1 (racemic) [Compound 72] | 33000 | 4.1
18 | 37.4 | 64.5 | 15.7 | 3400 | 190 | 9.7 | – | CNC[C@H](c1ccc2ccccc2c1)[C@H](OC)c1ccc2c(c1)OCO2 (racemic) [Compound 136] | 5400 | –
19 | 10.9 | 134 | 9.4 | 19000 | 310 | 9.7 | – | CNC[C@@H](c1ccc2ccccc2c1)[C@@H](O)c1ccc2c(c1)OCCO2 (racemic) [Compound 145] | 11000 | –
20 | 2.2 | 106 | 22.7 | – | 320 | 9.9 | – | CNCC(c1ccc2ccccc2c1)[C@H](CO)c1ccccc1 (single isomer, unassigned) [Compound 25] | 33000 | –
21 | 0.7 | 20.7 | 1.9 | – | 1100 | 9.6 | – | CNC[C@H](c1ccc2ccccc2c1)[C@H](OCC(=O)NC)c1ccccc1 [Compound 1] | 33000 | –
22 | 1.3 | 5.2 | 0.6 | 20000 | 1300 | 9.6 | – | CNC[C@H](c1ccc2ccccc2c1)[C@H](OCC(N)=O)c1ccccc1 [Compound 3] | 33000 | –
23 | 1.4 | 39.2 | 0.8 | – | 760 | 9.6 | – | CCNC(=O)CO[C@H](c1ccccc1)[C@H](CNC)c1ccc2ccccc2c1 [Compound 6] | 25000 | –
24 | 1.6 | 19.7 | 5.4 | 17000 | 400 | 9.6 | – | CNC[C@H](c1ccc2ccccc2c1)[C@H](OCC(=O)NC1CC1)c1ccccc1 [Compound 13] | 19000 | –
25 | 1.6 | 79.3 | 3.1 | 20000 | 3700 | 9.6 | – | CNC[C@H](c1ccc2ccccc2c1)[C@H](OCC(=O)NCCO)c1ccccc1 [Compound 14] | 33000 | –
26 | 1.7 | 42.5 | 2.4 | 20000 | 200 | 9.7 | – | CNC[C@H](c1ccc2ccccc2c1)[C@H](O)c1ccccc1F [Compound 15] | 12000 | –
27 | 1.8 | 31.9 | 0.4 | – | 330 | 9.6 | – | CNC[C@H](c1ccc2ccccc2c1)[C@H](OCc1cc(C)on1)c1ccccc1 [Compound 18] | 4600 | –
28 | 2.4 | 37.2 | 1.1 | – | 650 | 9.6 | – | CCCNC(=O)CO[C@H](c1ccccc1)[C@H](CNC)c1ccc2ccccc2c1 [Compound 29] | 11000 | –
29 | 2.7 | 13.2 | 1.4 | – | 550 | 9.6 | – | CNC[C@H](c1ccc2ccccc2c1)[C@H](OCC(=O)N(C)C)c1ccccc1 [Compound 33] | 33000 | –
30 | 2.8 | 70.8 | 3.7 | – | 320 | 9.6 | – | CCOC(=O)CO[C@H](c1ccccc1)[C@H](CNC)c1ccc2ccccc2c1 [Compound 35] | 13000 | –
31 | 3.8 | 36.5 | 2.9 | – | 800 | 9.6 | – | CNC[C@H](c1ccc2ccccc2c1)[C@H](OCC(=O)N1CCCC1)c1ccccc1 [Compound 50] | 17000 | –
32 | 22.6 | 86.2 | 25.4 | – | 590 | 10 | – | CNCC(Cc1ccccc1CO)c1ccc2ccccc2c1 (stereo not shown) [Compound 90] | 12000 | –
33 | 29.5 | 137 | 1.1 | – | 1200 | 10.1 | – | CNC[C@H](C[C@H](O)c1ccccc1)c1ccc2ccccc2c1 [Compound 93] | 13000 | –
